Key:
[1] = system: Escherichia coli; assay: Inhibition of nifuroxazide-induced genotoxicity in Escherichia coli PQ37 at 10 ug by SOS chromotest; assay type: functional
[2] = system: Escherichia coli; assay: Inhibition of nifuroxazide-induced genotoxicity in Escherichia coli PQ37 at 2 ug by SOS chromotest; assay type: functional
[3] = system: Escherichia coli; assay: Genotoxicity in Escherichia coli PQ37 assessed as ratio of beta-galactosidase/AP activity in presence and absence of drug at 2 ug; assay type: toxicity, organism-based
[4] = system: Escherichia coli; assay: Genotoxicity in Escherichia coli PQ37 assessed as ratio of beta-galactosidase/AP activity in presence and absence of drug at 50 ug; assay type: toxicity, organism-based
[5] = system: Escherichia coli; assay: Inhibition of nifuroxazide-induced genotoxicity in Escherichia coli PQ37 at 50 ug by SOS chromotest; assay type: functional
[6] = system: Escherichia coli; assay: Genotoxicity in Escherichia coli PQ37 assessed as ratio of beta-galactosidase/AP activity in presence and absence of drug at 10 ug; assay type: toxicity, organism-based
[7] = system: Escherichia coli; assay: Genotoxicity in Escherichia coli PQ37 assessed as ratio of beta-galactosidase/AP activity in presence and absence of drug at 5 ug; assay type: toxicity, organism-based

With `Cc1nc2c3c(ncn2n1)Oc1ccc2ccccc2c1C3C(C)C` (stereo not drawn) the Inhibition [1] was 98%, the Inhibition [2] was 99% and the Ratio [3] was 1.01. The Ratio [4] was 1.39, the Inhibition [5] was 95% and the Ratio [6] was 1.1.
`c1ccc(-c2nc3c4c(ncn3n2)Oc2ccc3ccccc3c2C4c2ccccc2)cc1` (stereo not drawn) gave an Inhibition [1] of 86%, an Inhibition [2] of 78% and a Ratio [3] of 1.02. For the same compound, the Ratio [4] was 1.4, the Inhibition [5] was 99% and the Ratio [6] was 1.24.
`Clc1ccccc1C1c2c(ccc3ccccc23)Oc2ncn3nc(-c4ccccc4)nc3c21` (stereo not drawn) showed an Inhibition [1] of 60%, an Inhibition [2] of 64% and a Ratio [3] of 1.16. For the same compound, the Ratio [4] was 1.62, the Inhibition [5] was 48% and the Ratio [6] was 1.21.
`Clc1ccc(C2c3c(ccc4ccccc34)Oc3ncn4nc(-c5ccccc5)nc4c32)cc1` (stereo not drawn) showed an Inhibition [1] of 38%, an Inhibition [2] of 32% and a Ratio [3] of 1.44. The Ratio [4] was 1.67, the Inhibition [5] was 48% and the Ratio [6] was 1.33.
Work on `CC(C)C1c2c(ccc3ccccc23)Oc2ncn3nc(-c4ccccc4)nc3c21` (stereo not drawn) yielded an Inhibition [1] of 61%, an Inhibition [2] of 62% and a Ratio [3] of 1.11. For the same compound, the Ratio [4] was 1.25, the Inhibition [5] was 63% and the Ratio [6] was 1.19.
In the case of `Cc1nc2c3c(ncn2n1)Oc1ccc2ccccc2c1C3c1ccccc1` (stereo not drawn), the Inhibition [1] is reported as 61%, the Inhibition [2] is reported as 70% and the Ratio [3] is reported as 1.12. It also gave a Ratio [4] of 1.56, an Inhibition [5] of 56% and a Ratio [6] of 1.32.
With `c1ccc(-c2nc3c4c(ncn3n2)Oc2ccc3ccccc3c2C4c2ccco2)cc1` (stereo not drawn) the Inhibition [1] was 99%, the Inhibition [2] was 99% and the Ratio [3] was 1.3. It also gave a Ratio [4] of 1.3, an Inhibition [5] of 75% and a Ratio [6] of 1.4.
In the case of `O=C(N/N=C/c1ccc([N+](=O)[O-])o1)c1ccc(O)cc1` [NIFUROXAZIDE], the Ratio [7] is reported as 12.88.

Reference: ChEMBL document CHEMBL1146366, “Synthesis and antigenotoxic activity of some naphtho[2,1-b]pyrano[3,2-e][1,2,4]triazolo[1,5-c]pyrimidine derivatives” (Eur J Med Chem, 2007)
